In ChEMBL document CHEMBL1157722, “Novel and selective DNA methyltransferase inhibitors: Docking-based virtual screening and experimental evaluation” (Bioorg Med Chem, 2010):
pIC50: −log10 of the molar value.

Columns and labels:
[1] = target: DNA (cytosine-5)-methyltransferase 1 (Homo sapiens, UniProt P26358); test: Inhibition of human recombinant DNMT1 expressed in baculovirus-insect cell system by scintillation counting
[2] = target: DNA (cytosine-5)-methyltransferase 3B (Homo sapiens, UniProt Q9UBC3); test: Inhibition of human recombinant DNMT3B expressed in baculovirus-insect cell system by scintillation counting

Chain of DNA (cytosine-5)-methyltransferase 1 (P26358 whole entry): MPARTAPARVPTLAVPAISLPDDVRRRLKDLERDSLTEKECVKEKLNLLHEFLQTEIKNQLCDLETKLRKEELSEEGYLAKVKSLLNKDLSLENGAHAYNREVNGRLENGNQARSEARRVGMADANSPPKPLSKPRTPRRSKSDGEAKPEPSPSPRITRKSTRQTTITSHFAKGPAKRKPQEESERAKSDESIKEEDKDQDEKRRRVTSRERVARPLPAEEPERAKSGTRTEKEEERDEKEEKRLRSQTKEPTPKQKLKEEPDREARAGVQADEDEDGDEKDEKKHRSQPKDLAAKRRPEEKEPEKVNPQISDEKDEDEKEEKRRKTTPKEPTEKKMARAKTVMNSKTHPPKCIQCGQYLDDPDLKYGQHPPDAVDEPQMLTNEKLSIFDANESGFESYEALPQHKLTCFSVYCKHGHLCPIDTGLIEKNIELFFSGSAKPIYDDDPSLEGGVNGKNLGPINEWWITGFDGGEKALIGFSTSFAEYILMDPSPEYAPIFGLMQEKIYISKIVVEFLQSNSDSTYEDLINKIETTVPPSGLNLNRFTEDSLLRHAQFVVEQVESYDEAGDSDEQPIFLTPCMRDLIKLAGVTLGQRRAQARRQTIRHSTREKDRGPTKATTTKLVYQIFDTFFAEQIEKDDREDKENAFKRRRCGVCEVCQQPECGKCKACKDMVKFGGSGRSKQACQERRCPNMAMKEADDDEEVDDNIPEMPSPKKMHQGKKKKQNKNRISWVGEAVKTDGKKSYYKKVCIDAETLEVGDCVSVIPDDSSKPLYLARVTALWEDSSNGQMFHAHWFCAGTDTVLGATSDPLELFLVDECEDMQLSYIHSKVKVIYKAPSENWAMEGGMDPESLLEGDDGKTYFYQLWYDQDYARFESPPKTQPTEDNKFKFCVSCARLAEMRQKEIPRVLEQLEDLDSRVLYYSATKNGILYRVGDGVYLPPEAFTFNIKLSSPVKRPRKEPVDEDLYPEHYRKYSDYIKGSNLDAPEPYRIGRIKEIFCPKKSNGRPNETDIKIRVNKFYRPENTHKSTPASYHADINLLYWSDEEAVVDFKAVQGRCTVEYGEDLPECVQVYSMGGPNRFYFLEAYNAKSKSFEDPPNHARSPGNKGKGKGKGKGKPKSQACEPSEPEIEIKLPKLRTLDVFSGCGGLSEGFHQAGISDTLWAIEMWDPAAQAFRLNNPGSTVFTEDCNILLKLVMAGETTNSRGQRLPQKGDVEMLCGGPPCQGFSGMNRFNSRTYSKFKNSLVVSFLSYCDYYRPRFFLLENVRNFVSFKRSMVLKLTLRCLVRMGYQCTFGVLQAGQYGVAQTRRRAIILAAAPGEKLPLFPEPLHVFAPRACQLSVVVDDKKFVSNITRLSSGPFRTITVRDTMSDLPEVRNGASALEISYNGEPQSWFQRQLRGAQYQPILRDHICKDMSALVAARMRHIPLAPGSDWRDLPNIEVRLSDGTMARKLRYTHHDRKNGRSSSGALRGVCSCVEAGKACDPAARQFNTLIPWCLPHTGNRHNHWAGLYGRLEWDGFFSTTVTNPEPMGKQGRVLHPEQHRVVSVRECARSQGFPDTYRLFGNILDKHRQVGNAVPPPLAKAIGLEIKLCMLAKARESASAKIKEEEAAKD

O=C(O)COc1ccc(C(=O)c2cc(Br)ccc2OCC(=O)O)cc1
pIC50 ([1]; read-out: IC50): 3.67 | IC50 [2]: Not Active

Nc1ncnc2c1ncn2[C@@H]1O[C@H](CSCC[C@H](N)C(=O)O)[C@@H](O)[C@H]1O [S-ADENOSYLHOMOCYSTEINE]
pIC50 ([2]; read-out: IC50): 6.60

O=C(O)CCCC(C(=O)O)N1C(=O)c2ccccc2C1=O (stereo not given)
IC50 [1]: Not Active | IC50 [2]: Not Active
